Assay results from publication PMC8388771, “Cationic Peptidomimetic Amphiphiles Having a N-Aryl- or N-Naphthyl-1,2,3-Triazole Core Structure Targeting Clostridioides (Clostridium) difficile: Synthesis, Antibacterial Evaluation, and an In Vivo C. difficile Infection Model” (Antibiotics, 2021).
Values after ≈ are worked out from the molar mass of the structure shown. Like-named read-outs stand apart in the source and are kept apart here. One block for each compound: values may come before it.

Assays:
E. faecalis ATCC 29212 [1] = system: E. faecalis ATCC 29212; design: method as in ref 30 (1), 31 (2, 4), 19 (3); conditions: Table 2; ref 30 (1), 31 (2, 4), 19 (3); cited from earlier work
S. pneumoniae ATCC 49619 [2] = system: S. pneumoniae ATCC 49619; design: method as in ref 30 (1), 31 (2, 4), 19 (3); conditions: Table 2; ref 30 (1), 31 (2, 4), 19 (3); cited from earlier work
[3] = design: method as in PMID 30901686; conditions: cited from earlier work; for appearance in the solubility assay: Figure 1
[4] = system: C. difficile strain R20291; design: method as in ref 30 (compound 1), 19 (compound 3); conditions: Table 2 footnote h; ref 30 (compound 1), 19 (compound 3); cited from earlier work
sheep erythrocytes = conditions: cited from earlier work
S. aureus NCTC 10442 [5] = system: S. aureus NCTC 10442; design: method as in ref 31 (2, 4), 19 (3); conditions: Table 2; MRSA; ref 31 (2, 4), 19 (3); cited from earlier work
C. difficile = conditions: Figure 1; cited from earlier work
E. coli ATCC 25922 [6] = system: E. coli ATCC 25922; design: method as in ref 30 (1), 31 (2, 4), 19 (3); conditions: Table 2; ref 30 (1), 31 (2, 4), 19 (3); cited from earlier work
[7] = system: C. difficile strain M7404 (RT027); design: method as in ref 30 (compound 1), 19 (compound 3); conditions: Table 2 footnote g; ref 30 (compound 1), 19 (compound 3); cited from earlier work
S. aureus ATCC 29213 [8] = system: S. aureus ATCC 29213; design: method as in ref 30 (1), 31 (2, 4), 19 (3); conditions: Table 2; ref 30 (1), 31 (2, 4), 19 (3); cited from earlier work
HEK293 cells = test: Cytotoxicity (CC50) assay by CO-ADD; type: cell-based, human; conditions: Table 1; cytotoxicity on HEK293 cells, tested at ≤32 µg/mL
[9] = Cytotoxicity (CC50) assay by CO-ADD; type: cell-based, human; conditions: human, HEK293 cells (ATCC CRL-1573); Table S1; HEK293 cells
S. aureus NCTC 10442 [10] = test: Primary MIC assay, S. aureus NCTC 10442 (MRSA); type: cell-based; conditions: Staphylococcus aureus; Table 1; MRSA; read-out: MIC S. aureus NCTC 10442
Method in brief: (§1)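 Primary MICs followed Clinical and Laboratory Standards Institute methods, the aerobic procedure for aerobic bacteria and the anaerobic procedure for anaerobes. Vancomycin, colistin, fluconazole and tamoxifen served as positive controls.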

E. faecalis ATCC 29212 [11] = test: Primary MIC assay, E. faecalis ATCC 29212; type: cell-based, Enterococcus faecalis; conditions: Table 1
Method in brief: as §1

C. difficile 132 (RT027) = test: Primary MIC assay, C. difficile 132 (RT027); type: cell-based, Clostridioides difficile; conditions: Clostridioides difficile; Table 1; read-out: MIC C. difficile 132 (RT027)
Method in brief: as §1

C. albicans ATCC 90028 = test: CO-ADD MIC assay, C. albicans ATCC 90028; type: cell-based
Method in brief: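 Whole-cell growth inhibition (MIC) screening run by CO-ADD. Fluconazole served as antifungal positive control.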

S. aureus ATCC 29213 [12] = test: Primary MIC assay, S. aureus ATCC 29213; type: cell-based; conditions: Staphylococcus aureus, ATCC29213; Table 1; read-out: MIC S. aureus ATCC 29213
Method in brief: as §1

[13] = system: K. pneumoniae ATCC 700603; test: CO-ADD MIC assay, K. pneumoniae ATCC 700603; type: cell-based; conditions: Klebsiella pneumoniae, ATCC700603, Table S1, multi-drug resistant
Method in brief: (§2)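 Secondary screening was run by CO-ADD as whole-cell growth inhibition assays, with MIC as the read-out. Vancomycin, colistin, fluconazole and tamoxifen served as positive controls.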

E. coli ATCC 25922 [14] = test: CO-ADD MIC assay, E. coli ATCC 25922; type: cell-based
Method in brief: as §2

human erythrocytes = test: Hemolysis assay, HC50 determination; type: cell-based
Description: Hemolysis assay (human erythrocytes)–HC50 determination. These were performed as described previously.

E. coli ATCC 25922 [15] = test: Primary MIC assay, E. coli ATCC 25922; type: cell-based; conditions: Escherichia coli, ATCC25922; Table 1; read-out: MIC E. coli ATCC 25922
S. pneumoniae ATCC 49619 [16] = test: Primary MIC assay, S. pneumoniae ATCC 49619; type: cell-based, Streptococcus pneumoniae; conditions: Table 1
Method in brief: as §1

C. difficile ATCC 700057 = test: Primary MIC assay, C. difficile ATCC 700057; type: cell-based, Clostridioides difficile; conditions: Clostridioides difficile, ATCC700057; Table 1; read-out: MIC C. difficile ATCC 700057
Method in brief: as §1

P. aeruginosa ATCC 27853 = test: CO-ADD MIC assay, P. aeruginosa ATCC 27853; type: cell-based; conditions: Pseudomonas aeruginosa, ATCC27853, Table S1
Method in brief: as §2

S. aureus ATCC 43300 = test: CO-ADD MIC assay, S. aureus ATCC 43300 (MRSA); type: cell-based; conditions: Table S1, MRSA, CO-ADD
Method in brief: as §2

A. baumannii ATCC 19606 = test: CO-ADD MIC assay, A. baumannii ATCC 19606; type: cell-based; conditions: Acinetobacter baumannii, ATCC19606, Table S1
Method in brief: as §2

Compound: CC(C)CCOc1ccc2ccccc2c1-c1c(OCC(=O)N[C@H](CCCNC(=N)N)Cn2cc(-c3ccccc3)nn2)ccc2ccccc12 [Compound 3]
MIC E. faecalis ATCC 29212 (E. faecalis ATCC 29212 [1]): 4 µg/mL (≈ 5.85 µM)
MIC S. pneumoniae ATCC 49619 (S. pneumoniae ATCC 49619 [2]): 8 µg/mL (≈ 11.7 µM)
appearance in the solubility assay [3]: flocculation
SR = solubility ratio relative to that of compound 1 [3]: 1
solubility during preparation in a 10% DMSO solution ([3]; precipitation): poor solubility
MIC C. difficile strain R20291 (RT207) [4]: 8 ^h μg/mL
Haemolysis (sheep erythrocytes; Figure 1): 86%
in vitro hemolytic activity (sheep erythrocytes; in words): high
MIC S. aureus NCTC 104422 (S. aureus NCTC 10442 [5]): 2 µg/mL (≈ 2.92 µM)
MIC against C. difficile (C. difficile): 8 µg/mL (≈ 11.7 µM)
MIC E. coli ATCC 25922 (E. coli ATCC 25922 [6]): >128 µg/mL
MIC C. difficile strain M7404 (RT027) [7]: 8 ^g μg/mL
MIC S. aureus ATCC 29213 (S. aureus ATCC 29213 [8]): 2 µg/mL (≈ 2.92 µM)

Compound: CC(C)CCOC(=O)[C@H](CC(C)C)NC(=O)[C@@H](CCCNC(=N)N)NC(=O)[C@@H](CCCCN)NC(=O)COc1ccc2ccccc2c1-c1c(OCCC(C)C)ccc2ccccc12 [Compound 1]
MIC E. faecalis ATCC 29212 (E. faecalis ATCC 29212 [1]): 2 µg/mL (≈ 2.27 µM)
MIC S. pneumoniae ATCC 49619 (S. pneumoniae ATCC 49619 [2]): 2 µg/mL (≈ 2.27 µM)
appearance in the solubility assay [3]: homogenous suspension
SR = solubility ratio relative to that of compound 1 [3]: 1
MIC C. difficile strain R20291 (RT207) [4]: 8 ^h μg/mL
MIC against C. difficile (C. difficile): 8 µg/mL (≈ 9.07 µM)
MIC E. coli ATCC 25922 (E. coli ATCC 25922 [6]): 16 µg/mL (≈ 18.1 µM)
MIC C. difficile strain M7404 (RT027) [7]: 8 ^g μg/mL
MIC S. aureus ATCC 29213 (S. aureus ATCC 29213 [8]): 2 µg/mL (≈ 2.27 µM)

MIC (S. aureus NCTC 10442 [10]): 8 µg/mL (≈ 13 µM)
MIC (E. faecalis ATCC 29212 [11]; Enterococcus faecalis, ATCC29212, read-out: MIC E. faecalis ATCC 29212): 16 µg/mL (≈ 26 µM)
MIC E. faecalis ATCC 29212 (E. faecalis ATCC 29212 [11]): 4 µg/mL (≈ 6.51 µM)
MIC (C. difficile 132 (RT027)): > 128 µg/mL
MIC (C. albicans ATCC 90028; Candida albicans, ATCC90028, Table S1): 32 µg/mL (≈ 52 µM)
MIC C. albicans ATCC 90028 (C. albicans ATCC 90028; Table S1): > 32 µg/mL
MIC (S. aureus ATCC 29213 [12]): 8 µg/mL (≈ 13 µM)
MIC [13]: > 32 µg/mL
MIC (E. coli ATCC 25922 [14]; Escherichia coli, ATCC25922, Table S1): 32 µg/mL (≈ 52 µM)
MIC E. coli ATCC 25922 (E. coli ATCC 25922 [14]; Table S1): > 32 µg/mL
MIC (E. coli ATCC 25922 [15]): 128 µg/mL (≈ 208 µM)
MIC (S. pneumoniae ATCC 49619 [16]; Streptococcus pneumoniae, ATCC49619, read-out: MIC S. pneumoniae ATCC 49619): 16 µg/mL (≈ 26 µM)
MIC S. pneumoniae ATCC 49619 (S. pneumoniae ATCC 49619 [16]): 4 µg/mL (≈ 6.51 µM)
MIC (C. difficile ATCC 700057): 128 µg/mL (≈ 208 µM)
MIC (P. aeruginosa ATCC 27853): > 32 µg/mL
MIC (S. aureus ATCC 43300; Staphylococcus aureus, read-out: MIC S. aureus ATCC 43300): 16 µg/mL (≈ 26 µM)
MIC S. aureus ATCC 43300 (S. aureus ATCC 43300): 8 µg/mL (≈ 13 µM)
MIC (A. baumannii ATCC 19606): > 32 µg/mL
Compound: CC(C)CCc1cn(-c2c(OCC(=O)N[C@H](CCCNC(=N)N)Cn3cc(C4CCCCC4)nn3)ccc3ccccc23)nn1 [Compound 21]
CC50 (HEK293 cells): >32 µg/mL
CC50 [9]: > 32 µg/mL
HC50 (human erythrocytes; Table 1, lysis of human erythrocytes): >32 µg/mL
HC50 (human erythrocytes; Table S1, footnote says lysis of sheep erythrocytes): > 32 µg/mL
